Molecular target: T1, mGluR5 receptor (Sus scrofa, UniProt I3LUI7)
T1 construct: from tissue; host or cells: pig brain halves without medulla, cerebellum and pons
Assay: [3H]-MPEP binding in the mGluR5 receptor binding assay (pig brain homogenate)
Settings: 10 μM; pig brain homogenate; 5 nM [3H]-MPEP
Protocol: I. Method the Determination of the Inhibition of the [^3H]-MPEP Binding in the mGluR5 Receptor Binding Assay
Pig brain homogenate is prepared by homogenization (Polytron PT 3000, Kinematica AG, 10,000 revolutions per minute 90 seconds) of pig brain halves without medulla, cerebellum and pons in a buffer solution having a pH of 8.0 (30 mM of hepes, Sigma, order no. H3375+1 tablet of Complete to 100 ml, Roche Diagnostics, order no. 1836145) in a ratio of 1:20 (brain weight/volume) and differential centrifugation at 900×g and 40,000×g. In each case 450 μg of protein from brain homogenate are incubated with 5 nM [^3H]-MPEP (Tocris, order no. R1212) (MPEP=2-methyl-6-(3-methoxyphenyl)ethynylpyridine) and the compounds to be investigated (10 μM in the test) in a buffer solution (as above) in 250 μl incubation batches in 96-well microtiter plates at room temperature 60 min.
Thereafter, the batches are filtered with the aid of a Brandel cell harvester (Brandel, Robotic 9600 model) onto Unifilter plates with glass fiber filter mats (Perkin Elmer, order no. 6005177) and then rinsed with buffer solution (as above) 3 times with 250 μl per sample each time. The filter plates are then dried 60 min at 55° C. 30 μl Ultima Gold™ scintillator (Packard BioScience, order no. 6013159) are subsequently added per well and, after 3 hours, the samples are measured on a β-counter (Mikrobeta, Perkin Elmer). The non-specific binding is determined by addition of 10 μM of MPEP (Tocris, order no. 1212).

T1 sequence (I3LUI7 19-1212): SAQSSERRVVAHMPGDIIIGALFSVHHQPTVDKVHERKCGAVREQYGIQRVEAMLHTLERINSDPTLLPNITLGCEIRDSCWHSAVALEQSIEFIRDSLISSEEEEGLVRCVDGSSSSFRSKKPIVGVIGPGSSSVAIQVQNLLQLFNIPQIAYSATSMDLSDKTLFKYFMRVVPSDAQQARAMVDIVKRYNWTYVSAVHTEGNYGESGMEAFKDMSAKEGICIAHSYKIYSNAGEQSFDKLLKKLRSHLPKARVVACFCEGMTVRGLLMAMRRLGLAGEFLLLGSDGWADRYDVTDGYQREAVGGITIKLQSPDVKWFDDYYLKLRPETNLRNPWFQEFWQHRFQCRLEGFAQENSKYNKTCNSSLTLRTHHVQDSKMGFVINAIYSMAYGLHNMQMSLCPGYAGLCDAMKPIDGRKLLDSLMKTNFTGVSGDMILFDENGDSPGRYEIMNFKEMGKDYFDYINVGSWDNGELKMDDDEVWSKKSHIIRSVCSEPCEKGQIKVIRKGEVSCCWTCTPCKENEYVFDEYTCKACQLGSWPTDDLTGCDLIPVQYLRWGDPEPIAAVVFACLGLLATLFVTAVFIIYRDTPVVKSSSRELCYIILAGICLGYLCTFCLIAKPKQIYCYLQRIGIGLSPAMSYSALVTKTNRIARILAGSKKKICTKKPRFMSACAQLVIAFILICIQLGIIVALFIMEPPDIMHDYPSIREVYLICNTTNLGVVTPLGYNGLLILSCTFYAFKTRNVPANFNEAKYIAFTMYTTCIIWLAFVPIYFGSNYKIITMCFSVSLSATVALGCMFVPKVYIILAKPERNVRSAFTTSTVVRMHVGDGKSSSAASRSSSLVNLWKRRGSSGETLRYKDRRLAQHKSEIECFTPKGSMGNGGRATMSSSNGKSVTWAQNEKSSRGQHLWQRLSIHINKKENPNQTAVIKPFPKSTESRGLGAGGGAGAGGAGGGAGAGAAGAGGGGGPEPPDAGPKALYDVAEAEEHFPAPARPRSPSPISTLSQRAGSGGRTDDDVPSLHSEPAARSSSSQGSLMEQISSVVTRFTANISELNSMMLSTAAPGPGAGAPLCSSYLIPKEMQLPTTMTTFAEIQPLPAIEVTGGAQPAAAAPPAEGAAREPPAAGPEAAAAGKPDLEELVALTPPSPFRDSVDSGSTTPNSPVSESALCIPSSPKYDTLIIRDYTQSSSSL

Structure (SMILES)	mGluR5-receptor (% inhibition 10 μM) in pigs [%]
CNC(=O)c1cnc(N2CCN(C(=O)C#Cc3ccccc3)CC2)s1 [Example AAA80, 4-(5-Methylaminocarbonylthiazol-2-yl)-1-(3-phenylpropiolyl)piperazine]	76
COc1ccc(C#CC(=O)N2CCN(c3nccs3)CC2)cc1 [Example AAA14, 4-(Thiazol-2-yl)-1-(3-(4-methoxyphenyl)propiolyl)piperazine]	34
O=C(C#Cc1ccccc1)N1CCN(c2nccs2)CC1c1ccccc1 (stereo not shown) [Example AAA72, 2-Phenyl-4-(thiazol-2-yl)-1-(3-phenylpropiolyl)piperazine]	81
COc1cccc(C#CC(=O)N2CCN(c3nccs3)CC2)c1 [Example AAA13, 4-(Thiazol-2-yl)-1-(3-(3-methoxyphenyl)propiolyl)piperazine]	87
O=C(C#Cc1ccco1)N1CCN(c2nccs2)CC1 [Example AAA73, 4-(Thiazol-2-yl)-1-(3-(2-furyl)propiolyl)piperazine]	74
O=C(C#Cc1ccccc1)N1CCN(c2nc(Cl)cs2)CC1 [Example AAA94, 4-(4-Chlorothiazol-2-yl)-1-(3-phenylpropiolyl)piperazine]	91
CN(C)c1cccc(C#CC(=O)N2CCN(c3nccs3)CC2)c1 [Example AAA00113, 4-(Thiazol-2-yl)-1-(3-(3-dimethylaminophenyl)propiolyl)piperazine]	27
O=C(C#Cc1ccc(F)cc1)N1CCN(c2nc(-c3ccccc3)ns2)CC1 [CCC5, 4-(3-Phenyl-1,2,4-thiadiazol-5-yl)-1-(3-(4-fluorophenyl)propiolyl)piperazine]	25
Cc1cccc(C#CC(=O)N2CCN(c3nc(C)cs3)CC2)c1 [CCC31, 4-(4-Methylthiazol-2-yl)-1-(3-(tol-3-yl)propiolyl)piperazine]	93
CN(C)C(=O)c1cnc(N2CCN(C(=O)C#Cc3ccccc3)CC2)s1 [Example AAA81, 4-(5-Dimethylaminocarbonylthiazol-2-yl)-1-(3-phenylpropiolyl)piperazine]	72
O=C(C#CC1CCCCC1)N1CCN(c2nccs2)CC1 [Example AAA69, 4-(Thiazol-2-yl)-1-(3-cyclohexylpropiolyl)piperazine]	72
O=C(C#Cc1ccccc1F)N1CCN(c2nc(-c3ccccc3)ns2)CC1 [CCC3, 4-(3-Phenyl-1,2,4-thiadiazol-5-yl)-1-(3-(2-fluorophenyl)propiolyl)piperazine]	28
CC(C)(C)c1nsc(N2CCN(C(=O)C#Cc3cccs3)CC2)n1 [CCC16, 4-(3-tert-Butyl-1,2,4-thiadiazol-5-yl)-1-(3-(thiophen-2-yl)propiolyl)piperazine]	33
Cc1noc(-c2cnc(N3CCN(C(=O)C#Cc4ccccc4)CC3)s2)n1 [Example AAA00106, 4-(5-(3-Methyl-1,2,4-oxadiazol-5-yl)thiazol-2-yl)-1-(3-phenylpropiolyl)piperazine]	68
O=C(C#Cc1ccsc1)N1CCN(c2nccs2)CC1 [Example AAA11, 4-(Thiazol-2-yl)-1-(3-(3-thienyl)propiolyl)piperazine]	52
N#Cc1cccc(C#CC(=O)N2CCN(c3nccs3)CC2)c1 [Example AAA16, 4-(Thiazol-2-yl)-1-(3-(3-cyanophenyl)propiolyl)piperazine]	93
O=C(C#Cc1ccccc1)N1CCN(c2nc(-c3ccccc3)ns2)CC1 [Example AAA82, 4-(3-Phenyl-1,2,4-thiadiazol-5-yl)-1-(3-phenylpropiolyl)piperazine]	37
CS(=O)(=O)c1cccc(C#CC(=O)N2CCN(c3nccs3)CC2)c1 [Example AAA00116, 4-(Thiazol-2-yl)-1-(3-(3-methylsulfonylphenyl)propiolyl)piperazine]	31
Nc1ccc(C#CC(=O)N2CCN(c3nccs3)CC2)cc1 [Example AAA8, 4-(Thiazol-2-yl)-1-(3-(4-aminophenyl)propiolyl)piperazine]	65
O=C(C#Cc1ccccn1)N1CCN(c2nccs2)CC1 [Example AAA32, 4-(Thiazol-2-yl)-1-(3-pyrid-2-ylpropiolyl)piperazine]	57
CCOC(=O)c1csc(N2CCN(C(=O)C#Cc3ccccc3)CC2)n1 [Example AAA77, 4-(4-Carboxy-thiazol-2-yl)-1-(3-phenylpropiolyl)piperazine ethyl ester]	89
C[C@@H]1CN(c2nccs2)C[C@H](C)N1C(=O)C#Cc1ccccc1 [Example AAA75, cis-2,6-Dimethyl-4-(thiazol-2-yl)-1-(3-phenylpropiolyl)piperazine]	97
CC(C)c1cccc(C#CC(=O)N2CCN(c3nccs3)CC2)c1 [Example AAA36, 4-(Thiazol-2-yl)-1-(3-(3-isopropylphenyl)propiolyl)piperazine]	40
COCc1cccc(C#CC(=O)N2CCN(c3nccs3)CC2)c1 [Example AAA42, 4-(Thiazol-2-yl)-1-(3-(3-methoxymethylphenyl)propiolyl)piperazine]	88

Same assay, conditions: Table II; unit inferred

Structure (SMILES)	IC50 [µM]
Cc1cc(F)cc(C#CC(=O)N2CCN(c3nccs3)CC2)c1 [Example AAA00110, 4-(Thiazol-2-yl)-1-(3-(3-fluoro-5-methylphenyl)propiolyl)piperazine]	1.39
O=C(C#Cc1ccccc1O)N1CCN(c2nccs2)CC1 [Example AAA4, 4-(Thiazol-2-yl)-1-(3-(2-hydroxyphenyl)propiolyl)piperazine]	0.45
CCCCCC#CC(=O)N1CCN(c2nccs2)CC1 [Example AAA60, 4-(Thiazol-2-yl)-1-(3-pentylpropiolyl)piperazine]	1.85
C=Cc1cccc(C#CC(=O)N2CCN(c3nccs3)CC2)c1 [Example AAA31, 4-(Thiazol-2-yl)-1-(3-(3-ethenylphenyl)propiolyl)piperazine]	0.038
O=C(C#Cc1ccc(F)cc1F)N1CCN(c2nccs2)CC1 [CCC22, 4-(Thiazol-2-yl)-1-(3-(2,4-difluorophenyl)propiolyl)piperazine]	10.5
O=C(C#Cc1ccccc1)N1CCN(c2ncc(Br)s2)CC1 [Example AAA96, 4-(5-Bromothiazol-2-yl)-1-(3-phenylpropiolyl)piperazine]	0.36
Cn1ccc2ccc(C#CC(=O)N3CCN(c4nccs4)CC3)cc21 [Example AAA00108, 4-(Thiazol-2-yl)-1-(3-(1-Methyl-indol-6-yl)propiolyl)piperazine]	1.24
C#Cc1cccc(C#CC(=O)N2CCN(c3nccs3)CC2)c1 [Example AAA00117, 4-(Thiazol-2-yl)-1-(3-(3-ethynylphenyl)propiolyl)piperazine]	0.026
Cc1csc(C#CC(=O)N2CCN(c3nccs3)CC2)c1 [AAA00118, 4-(Thiazol-2-yl)-1-(3-(4-methylthiophen-2-yl)propiolyl)piperazine]	0.093
O=C(C#Cc1ccccc1)N1CCN(c2nc(Br)cs2)CC1 [Example AAA97, 4-(4-Bromothiazol-2-yl)-1-(3-phenylpropiolyl)piperazine]	0.72
